Measurements reported in patent US8772489B2, “Optically active 2-hydroxy tetrahydrothienopyridine derivatives, preparation method and use in manufacture of medicament thereof” (Jiangsu Vcare PharmaTech Co. Ltd., priority 2010, dated 2014).
Like-named read-outs stand apart in the source and are kept apart here.

Columns and labels:
platelet aggregation = assay: animal or person; assay type: in vivo; details: Rattus norvegicus, read-out: Aggregation inhibition (%)
Text: The positive control and the test compounds (prepared in the above examples) were formulated in 0.5% CMC-Na (carboxymethylcellulose sodium) into suspensions for administration to animals.
Animals: male SD rats, weighed about 250 g, and supplied by Shanghai Super-B&K Laboratory Animal Corp. Ltd. Animal certificate No.: 2008001605451, and license No.: SCXK (Hu); SCXK (Hu) 2008-0016.
Instruments: a centrifuge (80-2 bench top low-speed centrifuge), an automatic platelet aggregation tester (STELLEXLG-PAPER-I platelet coagulation/aggregation analyzer), and others.
Methods: the pharmacological activity test of the compounds of the present invention for platelet aggregation was performed following Born's turbidimetric method (Nature, 1962, 194(4832): 927). An agglomeration-promoting substance, adenosine diphosphate (ADP), was added to a platelet rich plasma (PRP), and stirred to allow platelets to aggregate. […] This experiment can be used to evaluate the platelet aggregation effect induced by the test compounds administrated in-vivo or in-vitro.
The PRP was adjusted with a platelet poor plasma (PPP) to maintain the platelet counts at […]. The PRP was taken into a test cup, and incubated at 37° C. for 10 min. Light transmission was adjusted to 0% with PRP and to 100% with PPP for each measurement. By using ADP (with a final concentration of 5 μM) as an inducer, the platelet aggregation percentages were measured through the turbidimetric method using a platelet aggregation tester, and statistically compared by t-test. The platelet aggregation inhibition was calculated by the equation: platelet aggregation inhibition (%)=[1−(aggregation percent in dosed tube/aggregation percent in control tube)]×100%.

[1] = target: human carboxylesterase 1 (hCE1) (Homo sapiens, UniProt P23141); details: in vivo, J Pharmacol Exp Ther, 2006, 319: 1467; cited from earlier work
[2] = male SD rats, oral gavage 3 mg/kg, blood after 2 hrs, ADP 5 μM

human carboxylesterase 1 (hCE1), sequence (P23141 18-567): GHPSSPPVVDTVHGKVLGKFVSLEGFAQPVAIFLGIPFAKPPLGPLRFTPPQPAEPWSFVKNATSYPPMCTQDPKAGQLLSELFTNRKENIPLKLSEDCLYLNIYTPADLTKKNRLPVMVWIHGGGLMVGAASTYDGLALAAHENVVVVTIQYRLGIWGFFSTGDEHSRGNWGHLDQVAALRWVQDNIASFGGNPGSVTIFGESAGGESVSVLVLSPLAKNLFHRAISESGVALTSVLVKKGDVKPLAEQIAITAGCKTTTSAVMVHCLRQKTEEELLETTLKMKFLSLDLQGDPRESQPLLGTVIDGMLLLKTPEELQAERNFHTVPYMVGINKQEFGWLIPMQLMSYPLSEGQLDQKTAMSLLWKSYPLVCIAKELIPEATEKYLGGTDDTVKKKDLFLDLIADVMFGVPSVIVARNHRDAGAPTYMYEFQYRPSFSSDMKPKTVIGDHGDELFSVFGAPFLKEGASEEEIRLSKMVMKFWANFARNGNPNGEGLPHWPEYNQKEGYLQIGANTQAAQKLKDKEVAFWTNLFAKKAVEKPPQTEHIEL

SMILES | inhibition at 3 mg/kg (platelet aggregation; [2]) [%] | melting point [°C] | also measured
COC(=O)[C@H](c1ccccc1Cl)N1CCc2sc(OC(=O)c3ccc([N+](=O)[O-])cc3)cc2C1 [Compound I-10, (S)-methyl 2-(2-(4-nitrobenzoyloxy)-6,7-dihydrothieno[3,2-c]pyridin-5(4H)-yl)-2-(2-chlorophenyl)-acetate] | 36.8 | 100 to 102 | –
COC(=O)[C@H](c1ccccc1Cl)N1CCc2sccc2C1 [clopidogrel] | – | – | share of the prototype drug hydrolyzed by hCE1 in the liver into an inactive carboxylic derivative [1]: 85%
COC(=O)[C@H](c1ccccc1Cl)N1CCc2sc(OC(=O)c3cccnc3)cc2C1 [Compound I-6, (S)-methyl 2-(2-nicotinoyloxy-6,7-dihydrothieno[3,2-c]pyridin-5(4H)-yl)-2-(2-chlorophenyl)-acetate] | 31.3 | 92 to 94 | –
CCC(C)(C)C(=O)Oc1cc2c(s1)CCN([C@H](C(=O)OC)c1ccccc1Cl)C2 [Compound I-8, (S)-Methyl 2-(2-(2,2-dimethylbutanoyloxy)-6,7-dihydrothieno[3,2-c]pyridin-5(4H)-yl)-2-(2-chlorophenyl)-acetate] | 35.7 | 98 to 100 | –
COC(=O)[C@H](c1ccccc1Cl)N1CCc2sc(OC(=O)/C=C/c3ccccc3)cc2C1 [Compound I-9, (S)-methyl 2-(2-cinnamoyloxy-6,7-dihydrothieno[3,2-c]pyridin-5(4H)-yl)-2-(2-chlorophenyl)-acetate] | 30.3 | 122 to 124 | –
COC(=O)[C@H](c1ccccc1Cl)N1CCc2sc(OC(=O)COc3ccccc3)cc2C1 [Compound I-13, (S)-Methyl 2-(2-(phenoxyacetoxy)-6,7-dihydrothieno[3,2-c]pyridin-5(4H)-yl)-2-(2-chlorophenyl)-acetate] | 10.1 | 104 to 106 | –
CCOC(=O)Oc1cc2c(s1)CCN([C@H](C(=O)OC)c1ccccc1Cl)C2 [Compound I-14, (S)-Methyl 2-(2-(ethoxycarbonyloxy)-6,7-dihydrothieno[3,2-c]pyridin-5(4H)-yl)-2-(2-chlorophenyl)-acetate] | 62.9 | 42 to 44 | –
COC(=O)[C@H](c1ccccc1Cl)N1CCc2sc(OC(=O)c3ccccc3)cc2C1 [Compound I-1, (S)-Methyl 2-(2-benzoyloxy-6,7-dihydrothieno[3,2-c]pyridin-5(4H)-yl)-2-(2-chlorophenyl)-acetate] | 41.1 | 84 to 86 | –
COC(=O)[C@H](c1ccccc1Cl)N1CCc2sc(OC(=O)c3ccc(OC)cc3)cc2C1 [Compound I-11, (S)-Methyl 2-(2-(4-methoxybenzoyloxy)-6,7-dihydrothieno[3,2-c]pyridin-5(4H)-yl)-2-(2-chlorophenyl)-acetate] | 13.6 | – | –
COC(=O)[C@H](c1ccccc1Cl)N1CCc2sc(OC(=O)c3ccccc3OC(C)=O)cc2C1 [Compound I-5, (S)-methyl 2-(2-(2-acetoxybenzoyloxy)-6,7-dihydrothieno[3,2-c]pyridin-5(4H)-yl)-2-(2-chlorophenyl)-acetate] | – | – | inhibition at 3 mg/kg (platelet aggregation; po, 2 h): 55.1%
COC(=O)[C@H](c1ccccc1Cl)N1CCc2sc(OC(=O)N(C)C)cc2C1 [Compound I-18, (S)-Methyl 2-(2-(N,N-dimethylcarbamoyloxy)-6,7-dihydrothieno[3,2-c]pyridin-5(4H)-yl)-2-(2-chlorophenyl)-acetate] | – | 96 to 98 | inhibition at 3 mg/kg (platelet aggregation; po, 2 h): 48.2%
COC(=O)[C@H](c1ccc(Cl)cc1)N1CCc2sc(OC(C)=O)cc2C1 [Compound I-20, (S)-Methyl 2-(2-acetoxy-6,7-dihydrothieno[3,2-c]pyridin-5(4H)-yl)-2-(4-chlorophenyl)-acetate] | 17.6 | – | –
COC(=O)[C@H](c1ccccc1Cl)N1CCc2sc(OC(=O)N3CCCC3)cc2C1 [Compound I-22, (S)-Methyl 2-(2-(pyrrolidine-1-carbonyloxy)-6,7-dihydrothieno[3,2-c]pyridin-5(4H)-yl)-2-(2-chlorophenyl)-acetate] | – | – | inhibition at 3 mg/kg (platelet aggregation; po, 2 h): 20.3%
COC(=O)[C@@H](c1ccccc1Cl)N1CCc2sc(OC(C)=O)cc2C1 [I-2′] | 27.1 | – | inhibition at 10 mg/kg (platelet aggregation; male SD rats, oral gavage 10 mg/kg, blood after 2 hrs, ADP 5 μM): 55.3%
COC(=O)[C@H](c1ccccc1F)N1CCc2sc(OC(C)=O)cc2C1 [Compound I-19, (S)-Methyl 2-(2-acetoxy-6,7-dihydrothieno[3,2-c]pyridin-5 (4H)-yl)-2-(2-fluorophenyl)-acetate] | 63.5 | – | –
